US20140213446A1, “HERBICIDAL COMPOSITIONS AND METHODS USING COMBINATIONS OF 4-AMINO-3-CHLORO-6-(4-CHLORO-2-FLUORO-3-METHOXYPHENYL)PYRIDINE-2-CARBOXYLIC ACID OR A DERIVATIVE THEREOF AND AN ARYLOXYPHENOXY PROPIONATE ACCASE INHIBITOR HERBICIDE” (DOW AGROSCIENCES LLC, priority 2013, published 2014)

Experiments:
Experiment in all cases: Postemergent herbicidal activity, greenhouse
Format in all cases: in vivo
[1] = tested on: AMARE Amaranthus retroflexus L. (redroot pigweed)
Method: (§1) Evaluation of Postemergent Herbicidal Activity. Seeds or nutlets of the desired test plant species were planted in Sun Gro Metro-Mix® 360 planting mixture, which typically has a pH of 6.0 to 6.8 and an organic matter content of about 30 percent, in plastic pots with a surface area of 64 square centimeters (cm^2). When required to ensure good germination and healthy plants, a fungicide treatment and/or other chemical or physical treatment was applied. The plants were grown for 7-21 days (d) in a greenhouse with an approximate 15 hour (h) photoperiod which was maintained at about 23-29° C. during the day and 22-28° C. during the night. Nutrients and water were added on a regular basis and supplemental lighting was provided with overhead metal halide 1000-Watt lamps as necessary. The plants were employed for testing when they reached the first or second true leaf stage.
(§2) A weighed amount, determined by the highest rate to be tested, of each test compound was placed in a 25 milliliter (mL) glass vial and was dissolved in 4 mL of a 97:3 volume per volume (v/v) mixture of acetone and dimethyl sulfoxide (DMSO) to obtain concentrated stock solutions. […] The concentrated stock solutions obtained were diluted with 20 mL of an aqueous mixture containing acetone, water, isopropyl alcohol, DMSO, Atplus 411F crop oil concentrate, and Triton® X-155 surfactant in a 48.5:39:10:1.5:1.0:0.02 v/v ratio to obtain spray solutions containing the highest application rates. Additional application rates were obtained by serial dilution of 12 mL of the high rate solution into a solution containing 2 mL of a 97:3 v/v mixture of acetone and DMSO and 10 mL of an aqueous mixture containing acetone, water, isopropyl alcohol, DMSO, Atplus 411F crop oil concentrate, and Triton X-155 surfactant in a 48.5:39:10:1.5:1.0:0.02 v/v ratio to obtain ½X, ¼X, ⅛X and 1/16X rates of the high rate. Compound requirements are based upon a 12 mL application volume at a rate of 187 liters per hectare (L/ha). Formulated compounds were applied to the plant material with an overhead Mandel track sprayer equipped with 8002E nozzles calibrated to deliver 187 L/ha over an application area of 0.503 square meters (m^2) at a spray height of 18 inches ([…]) above the average plant canopy height. Control plants were sprayed in the same manner with the solvent blank.
(§3) Treatments consisted of the methyl ester of 4-amino-3-chloro-6-(4-chloro-2-fluoro-3-methoxyphenyl)pyridine-2-carboxylic acid (Cmpd 1) as technical grade material and fluazifop-P-butyl (Fusilade® DX), haloxyfop-P-methyl (GALLANT® super), and quizalofop-P-ethyl (Assure® II) alone and in combination. The form of compound of formula (I) and fluazifop-P-butyl, haloxyfop-P-methyl, and quizalofop-P-ethyl were applied on an acid equivalent basis.
(§4) The treated plants and control plants were placed in a greenhouse as described above and watered by subirrigation to prevent wash-off of the test compounds. After 14 d, the condition of the test plants as compared with that of the untreated plants was determined visually and scored on a scale of 0 to 100 percent where 0 corresponds to no injury and 100 corresponds to complete kill.
(§5) Results of testing mixtures in accordance with this disclosure and of the components of the mixtures separately against various common weeds in greenhouse trials are reported in the following tables. The reported values are of percent (%) control or percent (%) injury, visually rated. Colby's equation was used to determine the herbicidal effects expected from the mixtures (Colby, S. R. Calculation of the synergistic and antagonistic response of herbicide combinations. Weeds 1967, 15, 20-22.).
(§6) More specifically, the following equation was used to calculate the expected activity of mixtures containing two active ingredients, A and B:
(§7) A=observed efficacy of active ingredient A at the same concentration as used in the mixture; B=observed efficacy of active ingredient B at the same concentration as used in the mixture. […]

[2] = tested on: BRSNW Brassica napus (winter oilseed rape)
Method: as §1, §2, §3, §4, §5, §6, §7

[3] = tested on: CHEAL Chenopodium album L. (common lambsquarters)
Method: as §1, §2, §3, §4, §5, §6, §7

[4] = tested on: CIRAR Cirsium arvense (L.) Scop. (Canada thistle)
Method: as §1, §2, §3, §4, §5, §6, §7

[5] = tested on: IPOHE Ipomoea hederacea (L.) Jacq. (ivyleaf momingglory)
Method: as §1, §2, §3, §4, §5, §6, §7

[6] = tested on: STEME Stellaria media (L.) Vill. (common chickweed)
Method: as §1, §2, §3, §4, §5, §6, §7

[7] = tested on: VIOTR Viola tricolor L. (wild violet)
Method: as §1, §2, §3, §4, §5, §6, §7

Measured: Visual Growth Reduction (%) 14 DAA Obs

CCOC(=O)[C@@H](C)Oc1ccc(Oc2cnc3cc(Cl)ccc3n2)cc1 [Quizalofop-P-ethyl, quizalofop-P-ethyl]
0%: [1]; Quizalofop-P 37.5 g ae/ha | [1]; Quizalofop-P 75 g ae/ha | [1]; Quizalofop-P 150 g ae/ha | [2]; Quizalofop-P 37.5 g ae/ha | [2]; Quizalofop-P 75 g ae/ha | [2]; Quizalofop-P 150 g ae/ha | [3]; Quizalofop-P 37.5 g ae/ha | [3]; Quizalofop-P 75 g ae/ha | [3]; Quizalofop-P 150 g ae/ha | [4]; Quizalofop-P 37.5 g ae/ha | [4]; Quizalofop-P 75 g ae/ha | [4]; Quizalofop-P 150 g ae/ha | [5]; Quizalofop-P 37.5 g ae/ha | [5]; Quizalofop-P 75 g ae/ha | [5]; Quizalofop-P 150 g ae/ha | [6]; Quizalofop-P 37.5 g ae/ha | [6]; Quizalofop-P 75 g ae/ha | [6]; Quizalofop-P 150 g ae/ha | [7]; Quizalofop-P 37.5 g ae/ha | [7]; Quizalofop-P 75 g ae/ha | [7]; Quizalofop-P 150 g ae/ha
